Results taken from PubChem BioAssay (NCI).
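The compound was tested at five concentrations on cells cultured in 96-well plates, with a 48-hour exposure period. GI50 is the concentration that inhibits growth by half. TGI: concentration producing complete growth inhibition.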

Legend:
Assay in all cases: NCI tumour cell line growth inhibition, 48 h
NCI-H226 lung = test system: NCI-H226 lung
NCI-H23 lung = test system: NCI-H23 lung
NCI-H460 lung = test system: NCI-H460 lung
NCI-H522 lung = test system: NCI-H522 lung
NCI/ADR-RES ovarian = test system: NCI/ADR-RES ovarian
OVCAR-3 ovarian = test system: OVCAR-3 ovarian
OVCAR-4 ovarian = test system: OVCAR-4 ovarian
OVCAR-5 ovarian = test system: OVCAR-5 ovarian
OVCAR-8 ovarian = test system: OVCAR-8 ovarian
PC-3 prostate = test system: PC-3 prostate
RXF 393 renal = test system: RXF 393 renal
SF-268 CNS = test system: SF-268 CNS
SF-295 CNS = test system: SF-295 CNS
SF-539 CNS = test system: SF-539 CNS
SK-MEL-2 melanoma = test system: SK-MEL-2 melanoma
SK-MEL-28 melanoma = test system: SK-MEL-28 melanoma
SK-MEL-5 melanoma = test system: SK-MEL-5 melanoma
SK-OV-3 ovarian = test system: SK-OV-3 ovarian
SN12C renal = test system: SN12C renal
SNB-19 CNS = test system: SNB-19 CNS
SNB-75 CNS = test system: SNB-75 CNS
SR leukemia = test system: SR leukemia
SW-620 colon = test system: SW-620 colon
T-47D breast = test system: T-47D breast
TK-10 renal = test system: TK-10 renal
U251 CNS = test system: U251 CNS
UACC-257 melanoma = test system: UACC-257 melanoma
UACC-62 melanoma = test system: UACC-62 melanoma
UO-31 renal = test system: UO-31 renal

## Clc1ccccc1CNc1c2ccccc2nc2ccccc12
NCI-H226 lung
  TGI: 10.1 µM
NCI-H23 lung
  GI50: 1.67 µM
  TGI: 8.9 µM
NCI-H460 lung
  GI50: 1.7 µM
  TGI: 6.19 µM
NCI-H522 lung
  GI50: 5.05 µM
  TGI: 21.3 µM
NCI/ADR-RES ovarian
  GI50: 2.04 µM
  TGI: 9.52 µM
OVCAR-3 ovarian
  GI50: 3.39 µM
  TGI: 10.5 µM
OVCAR-4 ovarian
  GI50: 2.13 µM
  TGI: 8.11 µM
OVCAR-5 ovarian
  GI50: 2.16 µM
  TGI: 9.09 µM
OVCAR-8 ovarian
  GI50: 2.41 µM
  TGI: 13.3 µM
PC-3 prostate
  GI50: 2.24 µM
  TGI: 11.9 µM
RXF 393 renal
  GI50: 1.29 µM
  TGI: 4.44 µM
SF-268 CNS
  GI50: 2.95 µM
  TGI: 11.4 µM
SF-295 CNS
  GI50: 1.59 µM
  TGI: 7.31 µM
SF-539 CNS
  GI50: 1.84 µM
  TGI: 6.71 µM
SK-MEL-2 melanoma
  GI50: 3.26 µM
  TGI: 12.5 µM
SK-MEL-28 melanoma
  GI50: 2.75 µM
  TGI: 9.21 µM
SK-MEL-5 melanoma
  GI50: 3.09 µM
  TGI: 9.34 µM
SK-OV-3 ovarian
  GI50: 5.41 µM
  TGI: 12.6 µM
SN12C renal
  GI50: 1.93 µM
  TGI: 8.27 µM
SNB-19 CNS
  GI50: 2.28 µM
  TGI: 8.96 µM
SNB-75 CNS
  GI50: 2.55 µM
  TGI: 9.63 µM
SR leukemia
  GI50: 1.89 µM
  TGI: 6.99 µM
SW-620 colon
  GI50: 1.67 µM
  TGI: 6.56 µM
T-47D breast
  GI50: 2.3 µM
  TGI: 13 µM
TK-10 renal
  GI50: 3.98 µM
  TGI: 11 µM
U251 CNS
  GI50: 2.36 µM
  TGI: 9.7 µM
UACC-257 melanoma
  GI50: 2.99 µM
  TGI: 11.5 µM
UACC-62 melanoma
  GI50: 2.3 µM
  TGI: 9.18 µM
UO-31 renal
  GI50: 1.35 µM
  TGI: 6.96 µM
